Here are results for one molecule from US20050002552A1, “Automated in vitro cellular imaging assays for micronuclei and other target objects” (Pfizer Inc, priority 2003, published 2005).

Data set [1] deals with Chinese hamster ovary cells. Conditions: stated as known; cited from earlier work.
The subject of data set [2] is Chinese hamster ovary cells. In words: In vitro micronucleus assay, non-Cytochalasin B protocol (mononucleated cells). Particulars: cut-off double the DMSO value (micronuclei frequencies of 1.2% and higher are positive); manual or automated scoring; per run.
Procedure: Accordingly, the method of this invention was also used to determine micronuclei frequency in non-cytokinesis-blocked cell samples (i.e., cell samples that were not treated with Cytochalasin B or the like) and, therefore, which were mononucleated.
In the second set of experiments, Chinese hamster ovary cells were used and the only difference in treatment and image acquisition protocol between runs in this set was the stimulus (i.e., chemical agent) with which the cells were incubated. Cytochalasin B was not used is this set of experiments (and, thus, the cells remained virtually all mononucleated throughout the experiment).
Data set [3] has as its system Chinese hamster ovary cells. Particulars: cut-off two to three times the negative control value (1.1%); both wells, automated and manual scoring.
Source text: A small quantity of a discovery drug candidate will be added to each well (the amount will usually be in the range of from 0 micrograms to about 500 micrograms and often in the range of from 0 micrograms to about 100 micrograms), desirably in a carrier medium containing DMSO (dimethyl sulfoxide), ethanol, methanol, acetonitrile, and/or water.
A mixture such as one containing amino acids (e.g., L-glutamine), serum (e.g., 5% fetal bovine serum), and glucose will be added to the wells to provide an aqueous growth medium for the cells. […] The presence of binucleated cells in the microwell at the end of the process is proof that nuclear division occurred in the presence of the discovery drug candidate.
After the cells become attached to the plate bottom, a chemical stimulus (agent) such as a discovery drug candidate can be added to each well. […]
If more than one micronuclei is found in a single cell, the cell is likely undergoing nuclear fragmentation as a result of apoptosis (programmed cell-death) and, accordingly, should be discarded from the final analysis. The micronuclei rate or frequency can be calculated as the number of micronucleated cells divided by the total number of nuclear division in a sample (the rate or frequency may be converted to a percentage by multiplying the rate or frequency by 100).

Read-outs that look alike come from different tables or passages of the source.

Regarding `CO[C@@]12[C@H](COC(N)=O)C3=C(C(=O)C(C)=C(N)C3=O)N1C[C@@H]1N[C@@H]12` [Mitomycin C], the “Known aneugenicity/clastogenicity (positive control)” value in data set [1] is listed as “aneugenic/clastogenic”. The “Response call (clastogenic/aneugenic) against negative control” value in data set [2] is “positive”; in data set [3], “positive response”.
